Test results reported in patent publication US12655174B2, “Adenosine A3 receptor agonists, preparation methods and uses thereof” (ZHEJIANG VIMGREEN PHARMACEUTICALS, LTD., priority 2020, dated 2026).

Experiment: Pharmacokinetic test of compound in SD rat
Type: in vivo
Conditions: SD rats, intragastric administration (IG), cassette dosing
Method: Example 28: Pharmacokinetic Test of Compound in SD Rat
The animal species used in this experiment were SD rats. There were 3 animals per group. The rats were dosed in cassette format, i.e., multiple (1-6) different compounds were dosed simultaneously to the same group of the SD rats. The vehicle used for the drug was 5% DMSO+5% Solutl+90% ([…] methylcellulose M450), and the administration route was intragastric administration (IG).

Row | SMILES | AUC_D
1 | [2H]C([2H])([2H])NC(=O)[C@H]1O[C@@H](n2cnc3c(NCc4cccc(I)c4)ncnc32)[C@H](O)[C@@H]1O [compound 1, (2S,3S,4R,5R)-5-(6-(3-iodobenzylamino)-9H-purin-9-yl)-3,4-dihydroxyl-N-(methyl-d3)-tetrahydrofuran-2-formamide] | 343.50 kg·ng·h/mL/mg
2 | CONC(=O)[C@H]1O[C@@H](n2cnc3c(NCc4cccc(I)c4)ncnc32)[C@H](O)[C@@H]1O [compound 3, (2S,3S,4R,5R)-5-(6-(3-iodobenzylamino)-9H-purin-9-yl)-3,4-dihydroxyl-N-methoxy-tetrahydrofuran-2-formamide] | 152.40 kg·ng·h/mL/mg
3 | [2H]C([2H])([2H])NC(=O)[C@H]1O[C@@H](n2cnc3c(NCc4ccccc4)nc(-c4cccnc4)nc32)[C@H](O)[C@@H]1O [compound 10, (2S,3S,4R,5R)-5-(6-(benzylamino)-2-(pyridin-3-yl)-9H-purin-9-yl)-3,4-dihydroxyl-N-(methyl-d3)-tetrahydrofuran-2-formamide] | 146.00 kg·ng·h/mL/mg
4 | [2H]C([2H])([2H])NC(=O)[C@H]1O[C@@H](n2cnc3c(NCc4ccccc4)nc(-c4ccoc4)nc32)[C@H](O)[C@@H]1O [compound 11, (2S,3S,4R,5R)-5-(6-(benzylamino)-2-(furan-3-yl)-9H-purin-9-yl)-3,4-dihydroxyl-N-(methyl-d3)-tetrahydrofuran-2-formamide] | 174.00 kg·ng·h/mL/mg
5 | [2H]C([2H])([2H])NC(=O)[C@H]1O[C@@H](n2cnc3c(NCc4ccccc4)nc(-c4ccco4)nc32)[C@H](O)[C@@H]1O [compound 12, (2S,3S,4R,5R)-5-(6-(benzylamino)-2-(furan-2-yl)-9H-purin-9-yl)-3,4-dihydroxyl-N-(methyl-d3)-tetrahydrofuran-2-formamide] | 79.00 kg·ng·h/mL/mg
6 | [2H]C([2H])([2H])NC(=O)[C@H]1O[C@@H](n2cnc3c(NCc4ccccc4)nc(-c4cncc(Cl)c4)nc32)[C@H](O)[C@@H]1O [compound 15, (2S,3S,4R,5R)-5-(6-(benzylamino)-2-(5-chloropyridin-3-yl)-9H-purin-9-yl)-3,4-dihydroxyl-N-(methyl-d3)-tetrahydrofuran-2-formamide] | 807.78 kg·ng·h/mL/mg
7 | [2H]C([2H])([2H])NC(=O)[C@H]1O[C@@H](n2cnc3c(NCc4ccccc4)nc(-c4cncc(C)c4)nc32)[C@H](O)[C@@H]1O [compound 16, (2S,3S,4R,5R)-5-(6-(benzylamino)-2-(5-methylpyridin-3-yl)-9H-purin-9-yl)-3,4-dihydroxyl-N-(methyl-d3)-tetrahydrofuran-2-formamide] | 1291.00 kg·ng·h/mL/mg
8 | [2H]C([2H])([2H])NC(=O)[C@H]1O[C@@H](n2cnc3c(NCc4ccccc4)nc(-c4cnc(C)c(C)c4)nc32)[C@H](O)[C@@H]1O [compound 17, (2S,3S,4R,5R)-5-(6-(benzylamino)-2-(5,6-dimethylpyridin-3-yl)-9/-purin-9-yl)-3,4-dihydroxyl-N-(methyl-d3)-tetrahydrofuran-2-formamide] | 168.00 kg·ng·h/mL/mg
9 | [2H]C([2H])([2H])NC(=O)[C@H]1O[C@@H](n2cnc3c(NCc4ccccc4)nc(-c4cncc(C#N)c4)nc32)[C@H](O)[C@@H]1O [compound 19, (2S,3S,4R,5R)-5-(6-(benzylamino)-2-(5-cyanopyridin-3-yl)-9H-purin-9-yl)-3,4-dihydroxyl-N-(methyl-d3)-tetrahydrofuran-2-formamide] | 74.00 kg·ng·h/mL/mg
10 | [2H]C([2H])([2H])NC(=O)[C@H]1O[C@@H](n2cnc3c(NCc4ccccc4)nc(-c4cncc(F)c4)nc32)[C@H](O)[C@@H]1O [compound 32, (2S,3S,4R,5R)-5-(6-(benzylamino)-2-(5-fluoropyridin-3-yl)-9H-purin-9-yl)-3,4-dihydroxyl-N-(methyl-d3)-tetrahydrofuran-2-formamide] | 1384.00 kg·ng·h/mL/mg
11 | [2H]C([2H])([2H])NC(=O)[C@H]1O[C@@H](n2cnc3c(NCc4ccccc4)nc(-c4cncc(OC)c4)nc32)[C@H](O)[C@@H]1O [compound 33, (2S,3S,4R,5R)-5-(6-(benzylamino)-2-(5-methoxypyridin-3-yl)-9H-purin-9-yl)-3,4-dihydroxyl-N-(methyl-d3)-tetrahydrofuran-2-formamide] | 1578.00 kg·ng·h/mL/mg
12 | [2H]C([2H])([2H])NC(=O)[C@H]1O[C@@H](n2cnc3c(NCc4ccccc4)nc(-c4cncc(CC)c4)nc32)[C@H](O)[C@@H]1O [compound 34, (2S,3S,4R,5R)-5-(6-(benzylamino)-2-(5-ethylpyridin-3-yl)-9H-purin-9-yl)-3,4-dihydroxyl-N-(methyl-d3)-tetrahydrofuran-2-formamide] | 578.00 kg·ng·h/mL/mg

Results, then the compound that gave them:

Row | AUC_D | SMILES
13 | 360.90 kg·ng·h/mL/mg | CNC(=O)[C@H]1O[C@@H](n2cnc3c(NCc4cccc(OC)c4)nc(-c4cncc(Cl)c4)nc32)[C@H](O)[C@@H]1O (stereo in doubt) [compound 213, (2S,3S,4R,5S)-5-(2-(5-chloropyridin-3-yl)-6-((3-methoxybenzyl)amino)-9/-purin-9-yl)-3,4-dihydroxyl-N-methyltetrahydrofuran-2-carboxamide]
14 | 110.00 kg·ng·h/mL/mg | CCNC(=O)[C@H]1O[C@@H](n2cnc3c(NC)nc(-c4ccc(OC)nc4)nc32)[C@H](O)[C@@H]1O [compound 58, (2S,3S,4R,5R)-N-ethyl-3,4-dihydroxyl-5-(2-(6-methoxypyridin-3-yl)-6-(methylamino)-9H-purin-9-yl)tetrahydrofuran-2-carboxamide]
15 | 360.90 kg·ng·h/mL/mg | CNC(=O)[C@H]1O[C@@H](n2cnc3c(NCc4ccccn4)nc(-c4cncc(C)c4)nc32)[C@H](O)[C@@H]1O [compound 69, (2S,3S,4R,5R)-3,4-dihydroxyl-N-methyl-5-(2-(5-methylpyridin-3-yl)-6-((pyridin-2-ylmethyl)amino)-9H-purin-9-yl)tetrahydrofuran-2-carboxamide]
16 | 213.00 kg·ng·h/mL/mg | CCNC(=O)[C@H]1O[C@@H](n2cnc3c(NC)nc(-c4ccoc4)nc32)[C@H](O)[C@@H]1O [compound 74, (2S,3S,4R,5R)-N-ethyl-5-(2-(furan-3-yl)-6-(methylamino)-9H-purin-9-yl)-3,4-dihydroxyltetrahydrofuran-2-carboxamide]
17 | 81.00 kg·ng·h/mL/mg | CCNC(=O)[C@H]1O[C@@H](n2cnc3c(NC)nc(-c4ccsc4)nc32)[C@H](O)[C@@H]1O [compound 77, (2S,3S,4R,5R)-N-ethyl-3,4-dihydroxyl-5-(6-(methylamino)-2-(thiophen-3-yl)-9H-purin-9-yl)tetrahydrofuran-2-carboxamide]
18 | 115.00 kg·ng·h/mL/mg | [2H]C([2H])([2H])NC(=O)[C@H]1O[C@@H](n2cnc3c(NC([2H])([2H])[2H])nc(-c4ccoc4)nc32)[C@H](O)[C@@H]1O [compound 97, (2S,3S,4R,5R)-5-(2-(furan-3-yl)-6-((methyl-d3)amino)-9H-purin-9-yl)-3,4-dihydroxyl-N-(methyl-d)tetrahydrofuran-2-carboxamide]
